Consider two compounds from paper PMC6270821, “ROS-Mediated Cytotoxic Effect of Copper(II) Hydrazone Complexes against Human Glioma Cells” (Molecules, 2014).

Assay [1] concerns the target T1, bovine serum albumin (BSA) (Bos taurus, UniProt P02769).
T1 construct: purchased Sigma-Aldrich Brasil
Description: Fluorescence quenching of BSA. In kind it is binding. Conditions: for quenching of BSA fluorescence emission intensity: 1.0 µM BSA, up to 10.0 µM compound, excitation 280 nm, pH 7.20, 25 °C; for number of binding sites n (BSA): Scatchard equation; for binding constant K (BSA, Scatchard): phosphate buffer pH 7.20, 25 °C; for Stern-Volmer quenching constant Ksv (BSA): λ = 345 nm, 25 °C. The protocol: Based on fluorescence data for λ = 345 nm at 25 °C, the Stern-Volmer quenching constant (Ksv) and the bimolecular quenching rate constant (kq) were obtained using the classical Stern-Volmer equation (Equation (3)). The value of kq was calculated by the Ksv/τ0 ratio, where τ0 is the average lifetime of the fluorophore in the absence of quencher (τ0 =10 ns for BSA).
The interaction of complexes 1 and 2 with bovine serum albumin (BSA) was studied in phosphate buffer (8.3 mM, pH = 7.20). Stock solution of BSA (0.5 mM) was prepared in phosphate buffer and stored in the dark in the refrigerator for further use. The stock solutions of complexes were freshly prepared by first dissolving the compounds in DMF and then making the dilutions with phosphate buffer (pH = 7.20). The amount of DMF was kept less than 5% (by volume) for each set of experiment and had no effect on any experimental results.
(§1) The binding of the copper(II) complexes to BSA was studied using fluorescence spectra. The emission spectra were recorded in the 295–600 nm range with excitation at 280 nm. The excitation and emission slit widths and scan rates were constantly maintained for all the experiments. BSA solution (1.0 µM) was titrated by successive additions of a stock solution of the complexes (50 mM) using a micropipette. All experiments were performed at 298 K. The synchronous fluorescence spectra of BSA varying the concentration of 1 and 2 were recorded at ∆λ (difference between excitation and emission wavelength) = 15 nm and ∆λ = 60 nm.
If it is assumed that the binding of compounds with BSA occurs at equilibrium, the equilibrium binding constant can be analyzed according to the Scatchard equation [28].

The subject of the next assay is U87 cells. As to the kind of experiment: ROS generation, DCFH-DA assay, U87 cells. In kind it is cell-based, human. The note with it: 1 × 10^−5 mol/L, 24 h. The source says:
(§2) To examine the effects of H2AcMe, H2BzMe and their complexes 1 and 2 on the generation of free radicals (reactive oxygen species, ROS), we used the 2',7'-dichlorodihydrofluorescein diacetate (DCFH-DA) assay.
(§3) ROS accumulation was detected using dichlorodihydrofluorescein diacetate (DCFH-DA, Sigma). DCFH-DA is a non-fluorescent compound, that when it is taken up by passive diffusion into the cells, is hydrolyzed by esterases to yield non-permeable DCFH. In the presence of ROS, DCFH is oxidized to the fluorescent DCF. Tumor cells were treated with the compounds for 24 h and were then incubated with DCFH-DA (1 × 10^−5 mol·L^−1) for 30 min at 37 °C. Following incubation, the cells were washed twice with PBS. Thereafter, the cells were observed under the fluorescent microscope Zeiss Axionplan coupled with a digital camera at excitation and emission wavelengths of 488 and 525 nm, respectively. Data were analyzed using ImageJ (ImageJ, National Institute of Health, Bethesda, MD, USA) and expressed as percentages of DCFDA fluorescence of the corresponding control.

Assay [2] has as its system U87 (p53 wild-type glioblastoma multiforme) cells. Description: MTT cytotoxicity assay, U87 cells. In kind it is cell-based, human. Conditions: for IC50: MTT, 48 h treatment; for selectivity index (SI = IC50MRC5/IC50tumor cell), U87: U87 vs MRC5. On the procedure: The in vitro cytotoxic effects of H2AcMe, H2BzMe and complexes 1 and 2 against wild type p53 U87 and mutant p53 T98 glioblastoma cells and against MRC-5 fibroblasts cells were tested using cisplatin as a positive control. To determine the IC50 (concentration that inhibits 50% of cell survival) values the cytotoxic effects were quantified using the 3-(4,5-dimethyl-2-thioazolyl)-2,5-diphenyl tetrazolium bromide (MTT) colorimetric assay. All tested compounds were cytotoxic against both glioma cell lines in a dose-dependent way. The IC50 values (see Table 1) were found in the micromolar range. Despite their cytotoxic activity, all compounds were less toxic to fibroblasts cells than cisplatin. CuCl2 evoked only mild cytotoxicity in all cell lineages with IC50 higher than 100 µM.
U87 (p53 wild-type glioblastoma multiforme) and T98 (p53 mutant glioblastoma multiforme) malignant human tumor cells and MRC5 (Human Fetal Lung Fibroblast) cells were obtained from the American Type Culture Collection (ATCC, Manassas, VA, USA). Cell lines were grown as monolayer in Dulbecco’s Modified Eagle’s Medium (DMEM, Gibco, Rockville, MD, USA), supplemented with 10% fetal bovine serum (Cultilab, Campinas, São Paulo, Brazil) and antibiotics (50 U/mL penicillin/50 […] streptomycin), in a humidified atmosphere air/CO2 (95%/5%) at 37 °C. Cells 80% confluents were used in all experiments. For all experiments, cells were seeded in 96-well plates, at a density of 1000 cells/well. After 24 h incubation cells were treated.
To determine the IC50 values the cytotoxic effects were quantified using the 3-(4,5-dimethyl-2-thioazolyl)-2,5-diphenyltetrazolium bromide (MTT) colorimetric assay. Briefly, cells were treated with increasing concentrations (10^−12, 10^−11, 10^−10, 10^−9, 10^−8, 10^−7, 10^−6, 10^−5, 10^−4 mol·L^−1) of either cisplatin (positive control) or test compounds (H2AcMe, H2BzMe, 1 and 2). The compounds were previously dissolved in dimethyl sulfoxide (DMSO) and the final concentrations were adjusted in DMEM in such manner that the final DMSO concentration was lower than 0.5%. Following 48 h treatment, MTT reagent was added to each well. Following another 4 h of incubation at 37 °C, DMSO was added to each well to dissolve formazan precipitate and absorbance was measured at 570 nm. Tests using DMSO (0.5% in DMEM) as negative control were carried out in parallel. All tests were performed in quadruplicates with full agreement between the results. Statistical analysis was carried out by the unpaired, one-tailed Student’s t testing using a p value of 0.05. A value of p < 0.05 was considered significant.
Background: Formazan colour is commonly taken as a measure of viable cells.

The test system of another assay is MRC5 cells. Description: ROS generation, DCFH-DA assay, MRC5 cells. In kind it is cell-based, human. Conditions: 1 × 10^−5 mol/L, 24 h.
Text: as §2, §3

Assay [3] deals with T1, bovine serum albumin (BSA). As to the kind of experiment: Synchronous fluorescence spectra of BSA. The note with it: 1.0 µM BSA, up to 10.0 µM compound; for decrease of BSA synchronous fluorescence intensity at Δλ = 60 nm: tryptophan residues; for decrease of BSA synchronous fluorescence intensity at Δλ = 15 nm: tyrosine residues. In kind it is binding. On the procedure: Synchronous fluorescence spectroscopy is a very useful method to study the changes in the microenvironment of tyrosine and tryptophan amino acid residues in BSA [39]. The spectra were measured after and before the addition of test compounds. The synchronous fluorescence of BSA is characteristic of tyrosine residues when the difference between excitation and emission wavelength Δλ value is 15 nm and characteristic of tryptophan residues if Δλ value is 60 nm. […] In both cases, a decrease in emission intensity of BSA with increasing complex concentration was observed. […] In the spectra at Δλ = 60 nm, an important decrease of the BSA fluorescence intensity (~41% for 1 and ~44% for 2) accompanied by a small blue shift of 1nm occurs.
as §1

Each structure is given as a SMILES string.

T1 sequence (P02769 25-607): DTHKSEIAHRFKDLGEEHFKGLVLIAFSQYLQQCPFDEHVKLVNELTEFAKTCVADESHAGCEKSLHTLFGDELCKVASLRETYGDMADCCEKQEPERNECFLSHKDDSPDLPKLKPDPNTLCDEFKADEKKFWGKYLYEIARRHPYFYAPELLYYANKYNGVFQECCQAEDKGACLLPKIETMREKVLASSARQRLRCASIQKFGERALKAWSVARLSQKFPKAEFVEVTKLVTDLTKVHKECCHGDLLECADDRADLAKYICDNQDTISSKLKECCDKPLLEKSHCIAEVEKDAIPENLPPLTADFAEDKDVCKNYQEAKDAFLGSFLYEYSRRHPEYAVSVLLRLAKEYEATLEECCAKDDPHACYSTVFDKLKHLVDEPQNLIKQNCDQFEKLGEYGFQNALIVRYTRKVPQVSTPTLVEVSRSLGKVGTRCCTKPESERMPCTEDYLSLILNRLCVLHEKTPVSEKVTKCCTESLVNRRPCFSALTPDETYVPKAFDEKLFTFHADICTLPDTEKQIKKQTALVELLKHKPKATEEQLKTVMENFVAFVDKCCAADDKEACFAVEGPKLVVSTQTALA

The term IC50 denotes the concentration at which inhibition is half-maximal. Lower therefore signals higher potency. For the compound `CC(=O)NN=C(C)c1ccccn1.[Cl][Cu][Cl]` [compound 1, [dichloro(2-acetylpyridineacetyl-hydrazone)copper(II)]], in assay [1], the “quenching of BSA fluorescence emission intensity” value was ~ 35%; the “number of binding sites n (BSA)” value worked out at 1.06 ± 0.01; the “binding constant K (BSA, Scatchard)” value is “(1.11 ± 0.04) × 10^5 M^−1”; the “Stern-Volmer quenching constant Ksv (BSA)” value was “(0.55 ± 0.01) × 10^5 M^−1”. For the same compound, the “ROS levels in U87 cells compared with T98 cells” value with U87 cells was “higher levels of ROS in U87 cells”. In assay [2], half-maximal inhibition (IC50) required 3.02 ± 0.85 µM and the “selectivity index (SI = IC50MRC5/IC50tumor cell), U87” value is 7.45. The “ROS levels in MRC5 cells compared with glioma cells” value in the assay with MRC5 cells is reported as “lower levels of ROS in MRC5 cells”. Further, in assay [3], the “decrease of BSA synchronous fluorescence intensity at Δλ = 60 nm” value is ~ 41% and the “decrease of BSA synchronous fluorescence intensity at Δλ = 15 nm” value is ~ 16%.

With `CC(=O)NN=C(c1ccccc1)c1ccccn1.[Cl][Cu][Cl]` [compound 2, [dichloro(2-benzoylpyridineacetylhydrazone)copper(II)]], in assay [1], the “quenching of BSA fluorescence emission intensity” value is recorded as ~ 40%; the “number of binding sites n (BSA)” value turned out to be 1.06 ± 0.01; the “binding constant K (BSA, Scatchard)” value is on record as “(1.37 ± 0.05) × 10^5 M^−1”; the “Stern-Volmer quenching constant Ksv (BSA)” value is “(0.68 ± 0.01) × 10^5 M^−1”. Also, the “ROS levels in U87 cells compared with T98 cells” value in the assay with U87 cells is reported as “equally effective in both cell lineages”. Moreover, in assay [2], the 50% inhibitory concentration (IC50) turned out to be 5.95 ± 0.74 µM and the “selectivity index (SI = IC50MRC5/IC50tumor cell), U87” value is given as 8.30. The “ROS levels in MRC5 cells compared with glioma cells” value in the assay on MRC5 cells is “lower levels of ROS in MRC5 than in T98 glioma cells”. In addition, in assay [3], the “decrease of BSA synchronous fluorescence intensity at Δλ = 60 nm” value is ~ 44% and the “decrease of BSA synchronous fluorescence intensity at Δλ = 15 nm” value is listed as ~ 18%.
